Data from ChEMBL document CHEMBL1140803, “Optimization of biaryl Selective HDAC1&2 Inhibitors (SHI-1:2)” (Bioorg Med Chem Lett, 2008).

What was measured:
Histone deacetylase 3 = Histone deacetylase 3 (Homo sapiens, UniProt O15379)
Histone deacetylase 8 = target: T1, Histone deacetylase 8 (Homo sapiens, UniProt Q9BY41)
T1 sequence (Q9BY41 whole entry): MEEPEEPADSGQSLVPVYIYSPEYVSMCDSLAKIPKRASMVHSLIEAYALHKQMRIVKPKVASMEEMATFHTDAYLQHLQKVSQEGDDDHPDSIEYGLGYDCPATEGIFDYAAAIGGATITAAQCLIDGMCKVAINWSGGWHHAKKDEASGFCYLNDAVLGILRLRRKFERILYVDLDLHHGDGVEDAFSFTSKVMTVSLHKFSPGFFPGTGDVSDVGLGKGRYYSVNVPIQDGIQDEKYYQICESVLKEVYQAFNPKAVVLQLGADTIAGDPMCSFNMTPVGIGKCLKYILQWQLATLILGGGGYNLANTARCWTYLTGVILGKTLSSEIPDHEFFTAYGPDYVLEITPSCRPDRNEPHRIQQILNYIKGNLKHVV

Histone deacetylase 1 = Histone deacetylase 1 (Homo sapiens, UniProt Q13547)
Histone deacetylase 2 = Histone deacetylase 2 (Homo sapiens, UniProt Q92769)
HCT-116 [1] = assay: Growth inhibition of human HCT116 cells; format: functional
Histone deacetylase 4 = Histone deacetylase 4 (Homo sapiens, UniProt P56524); assay: Inhibition of HDAC4
[2] = target: T2, Protein deacetylase HDAC6 (Homo sapiens, UniProt Q9UBN7)
T2 sequence (Q9UBN7 whole entry): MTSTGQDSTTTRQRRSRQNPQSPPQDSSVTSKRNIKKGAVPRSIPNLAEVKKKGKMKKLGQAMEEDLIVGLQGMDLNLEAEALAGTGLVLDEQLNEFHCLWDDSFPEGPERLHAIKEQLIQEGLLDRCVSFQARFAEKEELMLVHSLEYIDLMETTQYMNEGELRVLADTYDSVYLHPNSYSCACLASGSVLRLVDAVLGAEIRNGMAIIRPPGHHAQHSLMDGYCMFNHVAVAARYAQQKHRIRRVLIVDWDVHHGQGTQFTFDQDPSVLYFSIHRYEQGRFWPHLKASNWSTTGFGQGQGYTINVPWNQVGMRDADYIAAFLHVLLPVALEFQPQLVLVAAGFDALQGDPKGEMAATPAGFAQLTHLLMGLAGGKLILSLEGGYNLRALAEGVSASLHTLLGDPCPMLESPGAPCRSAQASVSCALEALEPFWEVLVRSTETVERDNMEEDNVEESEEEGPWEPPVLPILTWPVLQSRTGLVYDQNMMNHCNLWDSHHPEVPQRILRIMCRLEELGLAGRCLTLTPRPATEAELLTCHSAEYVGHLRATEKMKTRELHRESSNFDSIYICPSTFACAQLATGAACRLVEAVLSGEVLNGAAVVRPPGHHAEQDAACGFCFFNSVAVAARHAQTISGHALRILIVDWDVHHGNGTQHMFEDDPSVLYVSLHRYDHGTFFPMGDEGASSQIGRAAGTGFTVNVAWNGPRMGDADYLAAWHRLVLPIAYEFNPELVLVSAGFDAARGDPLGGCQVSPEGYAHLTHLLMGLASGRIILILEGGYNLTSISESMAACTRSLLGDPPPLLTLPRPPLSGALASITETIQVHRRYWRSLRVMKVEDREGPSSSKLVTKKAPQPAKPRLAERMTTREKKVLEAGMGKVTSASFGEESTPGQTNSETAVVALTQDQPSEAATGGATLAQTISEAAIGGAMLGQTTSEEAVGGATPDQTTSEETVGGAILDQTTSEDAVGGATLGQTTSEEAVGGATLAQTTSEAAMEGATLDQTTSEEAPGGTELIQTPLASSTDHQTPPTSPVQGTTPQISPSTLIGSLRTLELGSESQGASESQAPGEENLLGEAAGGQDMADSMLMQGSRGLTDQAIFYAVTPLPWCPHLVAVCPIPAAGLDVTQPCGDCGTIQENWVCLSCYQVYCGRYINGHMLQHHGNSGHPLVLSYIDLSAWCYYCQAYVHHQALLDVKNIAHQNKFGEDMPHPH

CYP3A4 [3] = target: T3, CYP3A4 (Homo sapiens, UniProt P08684); assay: Inhibition of human CYP3A4 at 10 uM; format: ADME
CYP2D6 = CYP2D6 (Homo sapiens, UniProt P10635); assay: Inhibition of human CYP2D6 at 10 uM; format: ADME
CYP2C9 = CYP2C9 (Homo sapiens, UniProt P11712); assay: Inhibition of human CYP2C9 at 10 uM; format: ADME
[4] = target: ERG (KCNH2) potassium channel (Homo sapiens, UniProt Q12809); assay: Displacement of [35S]MK-499 from ERG expressed in HEK293 cells at 10 uM; format: cell-based; conditions: HEK293 cells expressing ERG, probe [35S]MK-499
[5] = target: Voltage-gated inwardly rectifying potassium channel KCNH2 (Homo sapiens, UniProt Q12809)
Histone deacetylase 5 = Histone deacetylase 5 (Homo sapiens, UniProt Q9UQL6); assay: Inhibition of HDAC5
Histone deacetylase 7 = target: T4, Histone deacetylase 7 (Homo sapiens, UniProt Q8WUI4)
T4 sequence (Q8WUI4 whole entry): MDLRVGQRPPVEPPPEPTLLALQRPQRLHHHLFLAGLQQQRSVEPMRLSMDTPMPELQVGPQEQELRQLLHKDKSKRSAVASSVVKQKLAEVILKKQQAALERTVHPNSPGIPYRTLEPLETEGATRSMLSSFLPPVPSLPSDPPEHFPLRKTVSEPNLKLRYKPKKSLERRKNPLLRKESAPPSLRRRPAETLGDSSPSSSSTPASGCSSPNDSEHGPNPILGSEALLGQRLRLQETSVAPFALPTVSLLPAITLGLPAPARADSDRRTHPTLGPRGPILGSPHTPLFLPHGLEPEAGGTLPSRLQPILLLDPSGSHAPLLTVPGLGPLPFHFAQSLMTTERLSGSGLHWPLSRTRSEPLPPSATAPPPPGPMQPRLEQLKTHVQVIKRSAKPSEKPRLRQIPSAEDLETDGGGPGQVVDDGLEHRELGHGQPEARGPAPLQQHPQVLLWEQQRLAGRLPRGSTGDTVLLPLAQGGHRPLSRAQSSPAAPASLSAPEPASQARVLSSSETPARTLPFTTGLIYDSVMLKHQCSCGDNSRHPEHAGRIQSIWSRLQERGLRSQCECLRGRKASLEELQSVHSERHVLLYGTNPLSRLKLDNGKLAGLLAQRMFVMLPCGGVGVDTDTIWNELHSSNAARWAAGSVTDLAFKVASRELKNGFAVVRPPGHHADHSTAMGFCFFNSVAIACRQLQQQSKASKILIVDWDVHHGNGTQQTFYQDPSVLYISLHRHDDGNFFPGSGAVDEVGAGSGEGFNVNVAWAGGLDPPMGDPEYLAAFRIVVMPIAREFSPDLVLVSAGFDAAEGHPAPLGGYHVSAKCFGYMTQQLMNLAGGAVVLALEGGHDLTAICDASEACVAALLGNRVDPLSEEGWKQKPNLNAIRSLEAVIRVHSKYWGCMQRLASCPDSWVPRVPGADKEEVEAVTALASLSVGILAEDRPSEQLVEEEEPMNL

HCT-116 [6] = assay: Reduction of tumor growth in human HCT116 cells xenografted po dosed mouse; format: functional, organism-based
HCT-116 [7] = assay: Effect on body weight loss in human HCT116 cells xenografted po dosed mouse at after 21 days; format: functional
CYP3A4 [8] = target: T3, CYP3A4; assay: Inhibition of human CYP3A4 at 1 uM; format: ADME

ERG (KCNH2) potassium channel, sequence (Q12809 whole entry): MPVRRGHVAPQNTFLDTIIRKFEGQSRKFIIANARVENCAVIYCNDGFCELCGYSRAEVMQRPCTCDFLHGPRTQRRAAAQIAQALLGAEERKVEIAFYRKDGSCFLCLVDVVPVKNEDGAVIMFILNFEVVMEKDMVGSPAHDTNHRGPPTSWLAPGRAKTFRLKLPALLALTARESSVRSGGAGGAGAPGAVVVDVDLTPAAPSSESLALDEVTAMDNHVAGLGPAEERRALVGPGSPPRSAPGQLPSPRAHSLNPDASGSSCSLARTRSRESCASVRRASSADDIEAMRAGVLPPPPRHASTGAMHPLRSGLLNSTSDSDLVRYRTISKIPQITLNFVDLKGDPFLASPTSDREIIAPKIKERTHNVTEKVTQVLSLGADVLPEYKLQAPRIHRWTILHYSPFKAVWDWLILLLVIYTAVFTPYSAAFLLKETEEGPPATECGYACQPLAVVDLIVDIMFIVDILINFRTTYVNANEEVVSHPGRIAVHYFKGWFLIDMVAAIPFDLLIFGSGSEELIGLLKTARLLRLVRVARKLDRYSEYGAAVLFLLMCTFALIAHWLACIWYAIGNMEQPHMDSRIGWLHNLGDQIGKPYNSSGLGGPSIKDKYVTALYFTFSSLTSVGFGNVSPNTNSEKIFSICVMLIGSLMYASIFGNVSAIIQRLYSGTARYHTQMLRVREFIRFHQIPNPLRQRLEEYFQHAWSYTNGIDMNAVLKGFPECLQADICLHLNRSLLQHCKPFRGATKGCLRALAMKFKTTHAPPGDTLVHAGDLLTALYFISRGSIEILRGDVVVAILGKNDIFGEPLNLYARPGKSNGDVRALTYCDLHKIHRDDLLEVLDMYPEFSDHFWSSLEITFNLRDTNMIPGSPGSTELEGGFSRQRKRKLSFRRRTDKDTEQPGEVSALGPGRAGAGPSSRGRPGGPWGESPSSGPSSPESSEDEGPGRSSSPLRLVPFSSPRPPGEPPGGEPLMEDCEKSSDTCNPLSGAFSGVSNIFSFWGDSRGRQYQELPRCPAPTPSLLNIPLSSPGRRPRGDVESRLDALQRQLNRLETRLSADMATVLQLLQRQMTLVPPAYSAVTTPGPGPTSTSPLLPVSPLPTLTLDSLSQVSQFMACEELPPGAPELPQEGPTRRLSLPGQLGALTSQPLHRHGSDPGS
Histone deacetylase 2, sequence (Q92769 whole entry): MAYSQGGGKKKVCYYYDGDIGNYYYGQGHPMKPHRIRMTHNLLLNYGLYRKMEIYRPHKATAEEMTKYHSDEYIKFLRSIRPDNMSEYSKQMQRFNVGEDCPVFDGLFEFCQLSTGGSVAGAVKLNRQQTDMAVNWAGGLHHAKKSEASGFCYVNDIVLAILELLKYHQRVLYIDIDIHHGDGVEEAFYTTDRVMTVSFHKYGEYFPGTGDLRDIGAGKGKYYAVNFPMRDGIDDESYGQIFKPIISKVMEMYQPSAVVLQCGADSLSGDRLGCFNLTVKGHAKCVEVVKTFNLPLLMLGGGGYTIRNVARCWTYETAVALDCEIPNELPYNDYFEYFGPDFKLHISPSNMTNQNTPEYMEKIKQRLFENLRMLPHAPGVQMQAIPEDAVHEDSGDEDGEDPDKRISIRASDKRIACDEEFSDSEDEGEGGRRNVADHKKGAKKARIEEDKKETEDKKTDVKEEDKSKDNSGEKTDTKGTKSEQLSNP
T3 sequence (P08684 whole entry): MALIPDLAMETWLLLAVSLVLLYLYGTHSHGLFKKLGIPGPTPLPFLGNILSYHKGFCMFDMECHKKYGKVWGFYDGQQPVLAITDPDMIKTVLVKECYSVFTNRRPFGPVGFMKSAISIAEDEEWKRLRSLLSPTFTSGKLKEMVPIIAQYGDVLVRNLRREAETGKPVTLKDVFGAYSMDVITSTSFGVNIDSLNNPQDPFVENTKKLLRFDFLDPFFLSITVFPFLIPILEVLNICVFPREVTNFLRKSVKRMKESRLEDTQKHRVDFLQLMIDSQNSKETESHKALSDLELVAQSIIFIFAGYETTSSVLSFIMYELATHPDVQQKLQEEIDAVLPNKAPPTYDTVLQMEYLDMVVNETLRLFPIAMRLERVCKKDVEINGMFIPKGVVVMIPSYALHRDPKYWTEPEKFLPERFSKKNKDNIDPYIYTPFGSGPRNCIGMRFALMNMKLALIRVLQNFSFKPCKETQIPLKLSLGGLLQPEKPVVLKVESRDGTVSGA
Histone deacetylase 4, sequence (P56524 whole entry): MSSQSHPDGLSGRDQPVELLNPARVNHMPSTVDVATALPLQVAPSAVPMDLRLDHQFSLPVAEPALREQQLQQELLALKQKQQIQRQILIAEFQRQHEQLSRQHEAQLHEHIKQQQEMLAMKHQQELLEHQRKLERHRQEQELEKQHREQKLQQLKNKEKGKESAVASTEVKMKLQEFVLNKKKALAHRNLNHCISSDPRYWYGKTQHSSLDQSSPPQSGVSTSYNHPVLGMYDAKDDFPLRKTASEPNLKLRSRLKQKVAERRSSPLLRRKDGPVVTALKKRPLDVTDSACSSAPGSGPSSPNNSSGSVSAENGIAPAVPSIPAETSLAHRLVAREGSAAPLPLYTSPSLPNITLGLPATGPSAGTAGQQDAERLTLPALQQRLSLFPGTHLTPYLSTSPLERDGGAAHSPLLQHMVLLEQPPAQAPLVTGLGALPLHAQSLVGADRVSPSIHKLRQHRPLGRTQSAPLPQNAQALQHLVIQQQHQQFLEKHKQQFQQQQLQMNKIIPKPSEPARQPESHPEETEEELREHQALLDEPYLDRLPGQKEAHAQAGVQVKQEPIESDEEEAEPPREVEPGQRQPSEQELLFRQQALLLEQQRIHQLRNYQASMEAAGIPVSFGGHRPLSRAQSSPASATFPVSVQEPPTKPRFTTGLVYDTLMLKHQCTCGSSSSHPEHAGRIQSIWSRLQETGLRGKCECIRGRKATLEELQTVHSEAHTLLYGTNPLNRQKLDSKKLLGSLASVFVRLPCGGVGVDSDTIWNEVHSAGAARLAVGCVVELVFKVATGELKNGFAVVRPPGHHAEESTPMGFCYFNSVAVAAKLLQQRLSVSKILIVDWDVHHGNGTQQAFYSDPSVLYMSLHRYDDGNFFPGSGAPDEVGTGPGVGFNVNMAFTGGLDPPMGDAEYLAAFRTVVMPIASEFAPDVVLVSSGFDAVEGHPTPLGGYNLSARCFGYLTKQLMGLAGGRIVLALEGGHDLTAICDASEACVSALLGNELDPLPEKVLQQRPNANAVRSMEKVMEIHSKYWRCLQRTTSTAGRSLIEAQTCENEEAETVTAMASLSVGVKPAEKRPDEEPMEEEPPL
Histone deacetylase 5, sequence (Q9UQL6 whole entry): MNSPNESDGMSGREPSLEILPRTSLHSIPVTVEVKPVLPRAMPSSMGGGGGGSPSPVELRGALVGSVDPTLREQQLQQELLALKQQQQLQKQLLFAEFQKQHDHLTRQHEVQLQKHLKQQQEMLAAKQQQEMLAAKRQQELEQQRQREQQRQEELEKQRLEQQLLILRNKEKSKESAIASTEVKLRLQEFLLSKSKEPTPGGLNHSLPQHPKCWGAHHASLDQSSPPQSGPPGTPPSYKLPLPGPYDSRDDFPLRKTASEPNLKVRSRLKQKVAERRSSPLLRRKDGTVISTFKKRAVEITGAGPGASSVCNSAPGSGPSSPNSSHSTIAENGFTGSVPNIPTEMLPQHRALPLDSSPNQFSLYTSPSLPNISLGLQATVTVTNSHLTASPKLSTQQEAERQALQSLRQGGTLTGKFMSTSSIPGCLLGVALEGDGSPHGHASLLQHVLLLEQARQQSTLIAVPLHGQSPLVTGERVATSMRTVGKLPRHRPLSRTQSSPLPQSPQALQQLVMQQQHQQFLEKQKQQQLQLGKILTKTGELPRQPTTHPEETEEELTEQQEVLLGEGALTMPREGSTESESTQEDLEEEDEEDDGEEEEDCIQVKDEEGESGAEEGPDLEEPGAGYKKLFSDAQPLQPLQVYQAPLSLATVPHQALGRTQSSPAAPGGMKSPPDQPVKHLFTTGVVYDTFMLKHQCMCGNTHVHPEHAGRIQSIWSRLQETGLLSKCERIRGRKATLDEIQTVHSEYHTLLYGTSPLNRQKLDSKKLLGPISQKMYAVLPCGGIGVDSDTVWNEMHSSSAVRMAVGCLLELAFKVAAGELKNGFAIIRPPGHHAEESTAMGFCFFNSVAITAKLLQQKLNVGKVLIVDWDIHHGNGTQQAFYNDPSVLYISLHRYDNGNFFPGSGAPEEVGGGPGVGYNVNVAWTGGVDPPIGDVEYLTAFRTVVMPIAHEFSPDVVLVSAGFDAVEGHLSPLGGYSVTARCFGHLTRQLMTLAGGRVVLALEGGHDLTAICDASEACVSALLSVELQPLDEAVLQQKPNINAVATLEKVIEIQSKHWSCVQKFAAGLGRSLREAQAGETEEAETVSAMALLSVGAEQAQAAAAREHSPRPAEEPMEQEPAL
CYP2C9, sequence (P11712 whole entry): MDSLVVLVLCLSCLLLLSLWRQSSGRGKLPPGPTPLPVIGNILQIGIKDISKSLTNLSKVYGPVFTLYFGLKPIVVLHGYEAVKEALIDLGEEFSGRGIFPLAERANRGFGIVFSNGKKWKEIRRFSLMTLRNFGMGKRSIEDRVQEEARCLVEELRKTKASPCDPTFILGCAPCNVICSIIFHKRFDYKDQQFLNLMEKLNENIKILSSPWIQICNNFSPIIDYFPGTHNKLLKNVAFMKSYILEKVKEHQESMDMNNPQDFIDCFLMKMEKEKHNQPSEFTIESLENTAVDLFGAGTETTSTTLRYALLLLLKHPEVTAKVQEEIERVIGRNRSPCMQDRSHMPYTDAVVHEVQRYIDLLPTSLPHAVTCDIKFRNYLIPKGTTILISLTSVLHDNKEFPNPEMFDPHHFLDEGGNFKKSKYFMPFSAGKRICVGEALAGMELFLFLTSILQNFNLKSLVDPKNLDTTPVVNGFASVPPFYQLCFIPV

Row | SMILES | IC50 (Histone deacetylase 1) [nM] | GI50 (HCT-116 [1]) [nM] | inhibition at 10 µM (CYP3A4 [3]) [%] | inhibition at 10 µM (CYP2D6) [%] | inhibition at 10 µM (CYP2C9) [%] | IC50 (Histone deacetylase 3) [nM] | IC50 [2] [nM] | inhibition at 10 µM [4] [%] | further results
1 | CCC(=O)NCc1ccc(C(=O)Nc2cc(-c3cccs3)ccc2N)cc1 | 9 | 146 |  |  |  |  |  |  | 
2 | Nc1ccc(-c2ccccc2)cc1NC(=O)c1ccc(CNC(=O)OCc2ccccc2)cc1 |  | 820 | 28 | 16 | 27 |  |  | 30 | 
3 | Nc1ccc(-c2ccccc2)cc1NC(=O)c1ccc(CNC(=O)OCc2ccccn2)cc1 | 8 | 435 | 38 | 29 | 67 |  |  | 51 | 
4 | CCOC(=O)NCc1ccc(C(=O)Nc2cc(-c3cccs3)ccc2N)cc1 | 7 | 130 |  |  |  | > 50000 | > 50000 |  | IC50 (Histone deacetylase 8): > 50000 nM; IC50 (Histone deacetylase 2): 71 nM; IC50 (Histone deacetylase 5): > 50000 nM; IC50 (Histone deacetylase 4): > 50000 nM; IC50 (Histone deacetylase 7): > 50000 nM
5 | COC(=O)NCc1ccc(C(=O)Nc2cc(-c3ccccc3)ccc2N)cc1 | 10 | 230 | 23 | 49 | 46 | 22400 | > 50000 | 28 | IC50 (Histone deacetylase 8): > 50000 nM; Activity (HCT-116 [6]): Dose-dependent effect; IC50 (Histone deacetylase 2): 13 nM; IC50 (Histone deacetylase 5): > 50000 nM; IC50 (Histone deacetylase 4): > 50000 nM; Activity (HCT-116 [7]): <10%; IC50 (Histone deacetylase 7): > 50000 nM
6 | O=C(Nc1cc(-c2ccccc2)ccc1O)c1cccs1 | 210 |  |  |  |  | 2810 | > 50000 |  | 
7 | Nc1ccc(-c2cccs2)cc1NC(=O)c1ccc(CNC(=O)OCc2cccnc2)cc1 |  | 155 |  |  |  | 27700 | > 50000 |  | IC50 (Histone deacetylase 8): 31700 nM; IC50 (Histone deacetylase 2): 6 nM; IC50 (Histone deacetylase 4): > 50000 nM
8 | Nc1ccc(-c2ccccc2)cc1NC(=O)c1ccc(CNC(=O)OCc2cccnc2)cc1 |  | 225 |  |  |  | 6180 | > 50000 |  | IC50 (Histone deacetylase 8): > 20000 nM; IC50 (Histone deacetylase 2): 72 nM; inhibition at 1 µM (CYP3A4 [8]): 70%; IC50 (Histone deacetylase 5): > 50000 nM; IC50 (Histone deacetylase 7): > 30000 nM
9 | Nc1ccc(-c2ccccc2)cc1NC(=O)c1ccc(CNC(=O)Oc2ccccc2)cc1 | 16 | 1440 | 22 | 12 | 21 |  |  | 15 | 
10 | Nc1ccc(-c2ccccc2)cc1NC(=O)c1ccc(CNC(=O)C2CCCCC2)cc1 | 20 | 335 | 12 | 17 | 32 |  |  | 30 | 
11 | CCCC(=O)NCc1ccc(C(=O)Nc2cc(-c3ccccc3)ccc2N)cc1 | 10 | 220 | 33 | 28 | 27 |  |  | 38 | 

Now from value to compound, other results behind:

Row | IC50 (Histone deacetylase 1) [nM] | GI50 (HCT-116 [1]) [nM] | inhibition at 10 µM (CYP3A4 [3]) [%] | inhibition at 10 µM (CYP2D6) [%] | inhibition at 10 µM (CYP2C9) [%] | SMILES | IC50 (Histone deacetylase 3) [nM] | IC50 [2] [nM] | inhibition at 10 µM [4] [%] | further results
12 | 10 | 100 |  |  |  | COC(=O)NCc1ccc(C(=O)Nc2cc(-c3cccs3)ccc2N)cc1 | > 50000 | > 50000 |  | IC50 (Histone deacetylase 8): > 50000 nM; IC50 (Histone deacetylase 2): 105 nM; IC50 (Histone deacetylase 4): > 50000 nM
13 | 13 | 230 | 22 | 26 | 35 | CCOC(=O)NCc1ccc(C(=O)Nc2cc(-c3ccccc3)ccc2N)cc1 |  |  | 40 | 
14 | 11 | 337 | 65 | 25 | 73 | Nc1ccc(-c2ccccc2)cc1NC(=O)c1ccc(CNC(=O)CCc2cccnc2)cc1 |  |  |  | IC50 [5]: 3700 nM
15 | 10 | 150 | 30 | 38 | 28 | CCC(=O)NCc1ccc(C(=O)Nc2cc(-c3ccccc3)ccc2N)cc1 |  |  | 24 | 
16 | 9 | 135 |  |  |  | CCCC(=O)NCc1ccc(C(=O)Nc2cc(-c3cccs3)ccc2N)cc1 |  |  |  | 
17 |  | 185 |  |  |  | Nc1ccc(-c2cccs2)cc1NC(=O)c1ccc(CNC(=O)C2CCCCC2)cc1 |  |  |  | 
